Measured values: patent US20250255847A1, “[…]s: Novel Drugs for Triple Negative Breast Cancer” (SIMMARON RSEARCH INC, priority 2024, published 2025)

What was measured:
purified STAT1 protein = molecular target: T1, purified STAT1 protein (Homo sapiens, UniProt P42224); assay: Protein thermal shift (PTS) assay of STAT1; format: binding; details: for ΔTm at 0.02 µM: 20 nM
T1 sequence (P42224 1-750): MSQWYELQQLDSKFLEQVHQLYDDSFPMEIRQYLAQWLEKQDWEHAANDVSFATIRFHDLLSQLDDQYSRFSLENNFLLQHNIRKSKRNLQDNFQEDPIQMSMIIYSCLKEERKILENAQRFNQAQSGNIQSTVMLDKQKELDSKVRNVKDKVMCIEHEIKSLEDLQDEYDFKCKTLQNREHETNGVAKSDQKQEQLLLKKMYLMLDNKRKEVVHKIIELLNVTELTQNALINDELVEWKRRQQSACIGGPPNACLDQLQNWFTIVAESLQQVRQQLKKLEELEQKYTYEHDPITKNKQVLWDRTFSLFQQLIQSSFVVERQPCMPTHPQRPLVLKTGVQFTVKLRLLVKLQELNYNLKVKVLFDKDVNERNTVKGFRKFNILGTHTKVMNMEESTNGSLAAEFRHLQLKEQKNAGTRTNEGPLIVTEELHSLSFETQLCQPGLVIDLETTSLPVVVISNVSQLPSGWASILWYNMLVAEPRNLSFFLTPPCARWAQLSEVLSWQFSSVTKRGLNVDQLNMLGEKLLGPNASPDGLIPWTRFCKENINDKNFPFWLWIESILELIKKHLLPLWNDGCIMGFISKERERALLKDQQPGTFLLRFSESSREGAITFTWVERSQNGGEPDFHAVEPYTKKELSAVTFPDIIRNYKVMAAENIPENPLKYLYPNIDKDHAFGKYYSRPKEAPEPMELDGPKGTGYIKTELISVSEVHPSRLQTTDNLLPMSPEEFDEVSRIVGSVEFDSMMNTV
Description: FIG. 5 illustrates an embodiment of the present invention and illustrates evaluations of SIM-1 and SIM-2 as STAT3 inhibitors. (A) Protein thermal shift assay was performed to assess the melting of purified recombinant STAT3 (blue; 0.5 μg protein) (Tm=melting temperature=68.88° C.). The representative melting curves were derived after adding SIM-1 (red; 4 nM), SIM-2 (purple; 8 nM), and positive control stattic (grey; 20 nM) to the STAT3 protein. The differences of melting temperature (ΔTm) between pure protein and protein+ligands are −4.54° C., −4.16° C., and 0.39° C. for SIM-1, SIM-2, and stattic (ΔTm^cut-off>2° C.). (B) Phospho protein array analysis was conducted in cell lysates of MDA-MB-468 cells treated with DMSO control (top left), 25 ng/mL EGF (top right), EGF+10 nM SIM-1 (bottom left), and EGF+SIM-2 (bottom right) for 24 hrs. Each colored arrowhead represents a specific phosphoprotein, and the description was added in the bottom of array images. S=serine and Y=tyrosine. Relative levels of (C) Tyrosine 705 (Y705) phosphorylated STAT3, (D) Serine 727 (S727) phosphorylated STAT3, (E) Tyrosine 693 (Y693) phosphorylated STAT4, (F) Tyrosine 694 ([…]) phosphorylated STAT5A had been derived after normalizing the spot densities (n=5) with respective β-actin spots. Results are mean±SD of five different spot analyses. One-way ANOVA was adopted to test the significance of mean between groups at **p<0.01, and ****p<0.0001. Ns=no significance. Thermal shift assays of increasing doses of (G) SIM-1, (H) SIM-2, and (I) stattic with purified STAT1 protein (0.5 μg protein). The respective ΔTm values were given with the plot after matching with the color code. Similarly, full-length STAT5b protein melting was assessed with (J) SIM-1, (K) SIM-2, and (L) stattic. Results are confirmed after three different experiments.
To confirm the result, PTS assay of STAT1 with SIM-1 (FIG. 5G), SIM-2 (FIG. 5H), and stattic (FIG. 5I) was performed. […] Similar results were observed while performing the binding assay with STAT5b.

[1] = tested on: Y705P STAT3 recruitment in IL6 promoter; assay: Chromatin immunoprecipitation of STAT3 response element in IL6 promoter; format: cell-based, human; details: 10 ng/mL EGF + 20 nM compound, 5 hrs, MDA-MB-468
Description: FIG. 9 illustrates an embodiment of the present invention and illustrates promoter recruitment assay of STAT3 in IL6 promoter. (A) MDA-MB-468 cells were treated with 5, 10, and 20 ng/mL doses of EGF for 5 hrs followed by immunoblot (IB) analyses of Y705 phospho and S727 phospho STAT3 in nuclear extracts. Histone 3 ([…]) IB was run as control. (B) EMSA analyses were performed in nuclear extracts of EGF (20 ng/mL)- and EGF+SIM-1 (20 nM)-treated MDA-MB-468 cells against the STAT3-specific oligonucleotide probe (Li-Cor bioscience; Cat #P/N: 829-07922) or SEQ ID NO: 1 and resolved in 6% DNA retardation gel (Invitrogen). […]
Third, to further confirm the promoter recruitment activity of Y705PSTAT3 in the IL6 promoter, chromatin immunoprecipitation assay of STAT3-response element in the IL6 promoter was performed using primer sets described under “Promoter analysis and Chromatin Immunoprecipitation (ChIP) assay” hereinabove. Briefly, MDA-MB-468 cells were incubated with 10 ng/mL EGF, EGF+SIM-1 (20 nM), and EGF+SIM-2 (20 nM) for 5 hrs followed by performing an immunoprecipitation (IP) of DNA-bound STAT3 with Y705P STAT3-specific antibody and then the precipitated DNA by PCR analysis was analyzed to identify STAT3 response element (˜121 bp long) in IL6 promoter.

Row | Compound | ΔTm at 0.01 µM (purified STAT1 protein; 10 nM) [°C] | ΔTm at 0.02 µM (purified STAT1 protein) [°C] | promoter recruitment activity of Y705P STAT3 in IL6 promoter [1] | ΔTm of STAT1 (purified STAT1 protein; concentration printed only as 'nM' (figure missing)) [°C]
1 | CCOC(=O)c1c(NC(C)=O)sc2c(Cl)c(/C=N/O)ccc12 [SIM-2, ethyl 2-acetamido-7-chloro-6-(hydroxyiminomethyl)-1-benzothiophene-3-carboxylate] | 0.46 | 0.89 | significantly attenuated | –
2 | O=C(O)CCC(=O)NCc1csc2ccc(Cl)cc12 [SIM-1, 4-[(5-chloro-1-benzothiophen-3-yl)methylamino]-4-oxobutanoic acid] | – | 0.29 | significantly attenuated | 0.41
